Converted amounts (≈) assume the structure as drawn.
Key:
[1] = system: S. marcescens GN6944; assay: MIC, agar plate dilution method, S. marcescens GN6944; type: cell-based, Serratia marcescens; conditions: S. marcescens GN6944, GM-resistant; for MIC: Serratia marcescens, read-out: minimal inhibitory concentration (MIC)
Summary of the method: (§1)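 Strains were tested on agar plates containing diluted compound, and the MIC (μg/mL) was recorded according to the Japan Society of Chemotherapy protocol.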

[2] = system: P. aeruginosa MSC17707; assay: MIC, agar plate dilution method, P. aeruginosa MSC17707; type: cell-based, Pseudomonas aeruginosa; conditions: for MIC: Pseudomonas aeruginosa, MSC17707, P. aeruginosa MSC17707, AMK-resistant, read-out: minimal inhibitory concentration (MIC); for minimal inhibitory concentration (MIC): P. aeruginosa MSC17707, AMK-resistant
Summary of the method: as §1

[3] = system: P. aeruginosa PAO1; assay: MIC, agar plate dilution method, P. aeruginosa PAO1; type: cell-based, Pseudomonas aeruginosa; conditions: for MIC: Pseudomonas aeruginosa, PAO1, P. aeruginosa PAO1, Sensitive bacterium, read-out: minimal inhibitory concentration (MIC); for minimal inhibitory concentration (MIC): P. aeruginosa PAO1, Sensitive bacterium
Summary of the method: as §1

[4] = system: S. marcescens TH-0447; assay: MIC, agar plate dilution method, S. marcescens TH-0447; type: cell-based, Serratia marcescens; conditions: for MIC: Serratia marcescens, TH0447, S. marcescens TH-0447, AMK-resistant, read-out: minimal inhibitory concentration (MIC); for minimal inhibitory concentration (MIC): S. marcescens TH-0447, AMK-resistant
Summary of the method: as §1

[5] = system: S. aureus RN4220; assay: MIC, agar plate dilution method, S. aureus RN4220; type: cell-based, Staphylococcus aureus; conditions: for MIC: Staphylococcus aureus, RN4220, S. aureus RN4220, Sensitive bacterium, read-out: minimal inhibitory concentration (MIC); for minimal inhibitory concentration (MIC): S. aureus RN4220, Sensitive bacterium
Summary of the method: as §1

[6] = system: K. pneumoniae ATCC BAA-1705; assay: MIC, agar plate dilution method, K. pneumoniae ATCC BAA-1705; type: cell-based, Klebsiella pneumoniae; conditions: for MIC: Klebsiella pneumoniae, ATCCBAA1705, K. pneumoniae ATCC BAA-1705, KPC-producing strain, read-out: minimal inhibitory concentration (MIC); for minimal inhibitory concentration (MIC): K. pneumoniae ATCC BAA-1705, KPC-producing strain
Summary of the method: as §1

[7] = system: S. aureus MF490; assay: MIC, agar plate dilution method, S. aureus MF490; type: cell-based, Staphylococcus aureus; conditions: for MIC: Staphylococcus aureus, MRSA, read-out: minimal inhibitory concentration (MIC); for minimal inhibitory concentration (MIC): S. aureus MF490, MRSA
Summary of the method: as §1

[8] = system: S. aureus RN4220/pMS520; assay: MIC, agar plate dilution method, S. aureus RN4220/pMS520; type: cell-based, Staphylococcus aureus; conditions: for MIC: Staphylococcus aureus, MRSA, read-out: minimal inhibitory concentration (MIC), S. aureus RN4220/pMS520, MRSA; for minimal inhibitory concentration (MIC): S. aureus RN4220/pMS520, MRSA
Summary of the method: as §1

[9] = system: E. faecium ATCC19434; assay: MIC, agar plate dilution method, E. faecium ATCC19434; type: cell-based, Enterococcus faecium; conditions: for MIC: Enterococcus faecium, ATCC19434, E. faecium ATCC19434, read-out: minimal inhibitory concentration (MIC); for minimal inhibitory concentration (MIC): E. faecium ATCC19434
Summary of the method: as §1

[10] = system: P. aeruginosa MSC01035; assay: MIC, agar plate dilution method, P. aeruginosa MSC01035; type: cell-based, Pseudomonas aeruginosa; conditions: P. aeruginosa MSC01035, ABK-resistant; for MIC: Pseudomonas aeruginosa, read-out: minimal inhibitory concentration (MIC)
Summary of the method: as §1

[11] = system: K. pneumoniae ATCC BAA-2146; assay: MIC, agar plate dilution method, K. pneumoniae ATCC BAA-2146; type: cell-based, Klebsiella pneumoniae; conditions: for MIC: Klebsiella pneumoniae, ATCCBAA2146, K. pneumoniae ATCC BAA-2146, NDM-producing strain, read-out: minimal inhibitory concentration (MIC); for minimal inhibitory concentration (MIC): K. pneumoniae ATCC BAA-2146, NDM-producing strain
Summary of the method: as §1

[12] = system: E. coli JM109/pMW218; assay: MIC, agar plate dilution method, E. coli JM109/pMW218; type: cell-based, Escherichia coli; conditions: for MIC: Escherichia coli, JM109/PMW218, E. coli JM109/pMW218, Sensitive bacterium, read-out: minimal inhibitory concentration (MIC); for minimal inhibitory concentration (MIC): E. coli JM109/pMW218, Sensitive bacterium
Summary of the method: as §1

[13] = system: A. baumannii ATCC BAA-1710; assay: MIC, agar plate dilution method, A. baumannii ATCC BAA-1710; type: cell-based, Acinetobacter baumannii; conditions: for MIC: Acinetobacter baumannii, ATCCBAA1710, A. baumannii ATCC BAA-1710, MDRA, read-out: minimal inhibitory concentration (MIC); for minimal inhibitory concentration (MIC): A. baumannii ATCC BAA-1710, MDRA
Summary of the method: as §1

[14] = system: P. aeruginosa PAO1/GN315; assay: MIC, agar plate dilution method, P. aeruginosa PAO1/GN315; type: cell-based, Pseudomonas aeruginosa; conditions: for MIC: Pseudomonas aeruginosa, read-out: minimal inhibitory concentration (MIC), P. aeruginosa PAO1/GN315, AMK-resistant; for minimal inhibitory concentration (MIC): P. aeruginosa PAO1/GN315, AMK-resistant
Summary of the method: as §1

Row | SMILES | MIC [1] [µg/mL] | MIC [2] [µg/mL] | MIC [3] [µg/mL] | MIC [4] [µg/mL] | MIC [5] [µg/mL] | MIC [6] [µg/mL] | MIC [7] [µg/mL] | MIC [8] [µg/mL] | MIC [9] [µg/mL] | MIC [10] [µg/mL] | MIC [11] [µg/mL] | MIC [12] [µg/mL] | MIC [13] [µg/mL] | MIC [14] [µg/mL] | minimal inhibitory concentration (MIC) [1] [µg/mL] | minimal inhibitory concentration (MIC) [2] [µg/mL] | minimal inhibitory concentration (MIC) [3] [µg/mL] | minimal inhibitory concentration (MIC) [4] [µg/mL] | minimal inhibitory concentration (MIC) [5] [µg/mL] | minimal inhibitory concentration (MIC) [6] [µg/mL] | other results
1 | CNC1C(O[C@H]2OC(CO)[C@@H](NC(=O)[C@@H](C)N)[C@H](O)C2O)O[C@H]2CC(N)[C@@H](O[C@@H]3C(N)C[C@@H](N)C(O)[C@H]3O)OC2C1O (stereo partly drawn) [Compound V1-d, 4″-N-(D-alanyl)apramycin] | 8 (≈ 13.1 µM) | 8 (≈ 13.1 µM) | 4 (≈ 6.55 µM) | 16 (≈ 26.2 µM) | 4 (≈ 6.55 µM) | 2 (≈ 3.28 µM) | 16 (≈ 26.2 µM) | 4 (≈ 6.55 µM) | 64 (≈ 105 µM) | 8 (≈ 13.1 µM) | 2 (≈ 3.28 µM) | 2 (≈ 3.28 µM) | 8 (≈ 13.1 µM) | 8 (≈ 13.1 µM) |  |  |  |  |  |  | 
2 | CN[C@@H]1[C@@H](O[C@H]2O[C@H](CO)[C@@H](NC)[C@H](O)[C@H]2O)O[C@H]2C[C@@H](N)[C@@H](O[C@H]3CC[C@H](N)C[C@@H]3N)O[C@@H]2[C@@H]1O [Compound T2-a, 5,6-dideoxy-4″-N-methylapramycin] |  |  |  |  |  |  |  |  |  |  |  |  |  |  | 4 (≈ 7.67 µM) | 4 (≈ 7.67 µM) | 4 (≈ 7.67 µM) | 4 (≈ 7.67 µM) | 2 (≈ 3.83 µM) | 1 (≈ 1.92 µM) | minimal inhibitory concentration (MIC) [7]: 8 µg/mL (≈ 15.3 µM); minimal inhibitory concentration (MIC) [8]: 1 µg/mL (≈ 1.92 µM); minimal inhibitory concentration (MIC) [9]: 8 µg/mL (≈ 15.3 µM); minimal inhibitory concentration (MIC) [10]: 4 µg/mL (≈ 7.67 µM); minimal inhibitory concentration (MIC) [11]: 1 µg/mL (≈ 1.92 µM); minimal inhibitory concentration (MIC) [12]: 0.5 µg/mL (≈ 0.959 µM); minimal inhibitory concentration (MIC) [13]: 4 µg/mL (≈ 7.67 µM); minimal inhibitory concentration (MIC) [14]: 4 µg/mL (≈ 7.67 µM)
3 | CN[C@@H]1[C@@H](O[C@H]2O[C@H](C)[C@@H](N)C[C@H]2O)O[C@H]2C[C@@H](N)[C@@H](O[C@H]3[C@H](O)[C@@H](O)[C@H](N)C[C@@H]3N)O[C@@H]2[C@@H]1O [Compound K4, 3″,6″-dideoxyapramycin] |  |  |  |  |  |  |  |  |  |  |  |  |  |  | 4 (≈ 7.88 µM) | 16 (≈ 31.5 µM) | 8 (≈ 15.8 µM) | 8 (≈ 15.8 µM) | 2 (≈ 3.94 µM) | 2 (≈ 3.94 µM) | minimal inhibitory concentration (MIC) [7]: 8 µg/mL (≈ 15.8 µM); minimal inhibitory concentration (MIC) [8]: 2 µg/mL (≈ 3.94 µM); minimal inhibitory concentration (MIC) [9]: 8 µg/mL (≈ 15.8 µM); minimal inhibitory concentration (MIC) [10]: 16 µg/mL (≈ 31.5 µM); minimal inhibitory concentration (MIC) [11]: 1 µg/mL (≈ 1.97 µM); minimal inhibitory concentration (MIC) [12]: 1 µg/mL (≈ 1.97 µM); minimal inhibitory concentration (MIC) [13]: 16 µg/mL (≈ 31.5 µM); minimal inhibitory concentration (MIC) [14]: 8 µg/mL (≈ 15.8 µM)
4 | CNC1C(O[C@H]2OC(CO)[C@@H](N)[C@H](N)C2O)O[C@H]2CC(N)[C@@H](O[C@@H]3C(N)C[C@@H](N)C(O)[C@H]3O)OC2C1O (some centres unmarked) [Compound G8, 3″-amino-3″-deoxyapramycin] | 16 (≈ 29.7 µM) | 16 (≈ 29.7 µM) | 8 (≈ 14.9 µM) | 16 (≈ 29.7 µM) | 8 (≈ 14.9 µM) | 4 (≈ 7.43 µM) | 32 (≈ 59.4 µM) | 8 (≈ 14.9 µM) | 32 (≈ 59.4 µM) | 16 (≈ 29.7 µM) | 4 (≈ 7.43 µM) | 2 (≈ 3.71 µM) | 16 (≈ 29.7 µM) | 16 (≈ 29.7 µM) |  |  |  |  |  |  | 
